The supplement of paper PMC10307832

Assays:
Assay in all cases: relative viability (nuclei count vs DMSO), 5 days (fraction); higher = more cells survive
CAP-232 + Bortezomib = compound: C[C@H]([C@@H](C(=O)N)NC(=O)[C@@H]1CSSC[C@@H](C(=O)N[C@H](C(=O)N[C@@H](C(=O)N[C@H](C(=O)N1)CCCCN)CC2=CNC3=CC=CC=C32)CC4=CC=C(C=C4)O)NC(=O)[C@@H](CC5=CC=CC=C5)N)O [CAP-232] + CC(C)C[C@H](NC(=O)[C@H](Cc1ccccc1)NC(=O)c1cnccn1)B(O)O [Bortezomib] (partner 0.002 µM)
Procedure, shortened: (§1)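 For relative viability, nuclei counts in treated wells were divided by those in vehicle wells. Lung cancer cell lines had been pin-tool dosed in 1536-well plates the day after seeding and cultured for 5 days, then fixed and stained in one step (final 0.05% Triton X-100, 1% formaldehyde, 1 ug/ml Hoechst) and imaged at 4×. Doses were one drug alone or a fixed anchor-drug dose plus five library-drug doses (not always all listed) in √10 steps, and values are duplicate-plate medians.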

CAP-232 + Foretinib = compound: C[C@H]([C@@H](C(=O)N)NC(=O)[C@@H]1CSSC[C@@H](C(=O)N[C@H](C(=O)N[C@@H](C(=O)N[C@H](C(=O)N1)CCCCN)CC2=CNC3=CC=CC=C32)CC4=CC=C(C=C4)O)NC(=O)[C@@H](CC5=CC=CC=C5)N)O [CAP-232] + COc1cc2c(Oc3ccc(NC(=O)C4(C(=O)Nc5ccc(F)cc5)CC4)cc3F)ccnc2cc1OCCCN1CCOCC1 [Foretinib] (partner 0.25 µM)
Procedure, shortened: as §1

CAP-232 + Olaparib = compound: C[C@H]([C@@H](C(=O)N)NC(=O)[C@@H]1CSSC[C@@H](C(=O)N[C@H](C(=O)N[C@@H](C(=O)N[C@H](C(=O)N1)CCCCN)CC2=CNC3=CC=CC=C32)CC4=CC=C(C=C4)O)NC(=O)[C@@H](CC5=CC=CC=C5)N)O [CAP-232] + O=C(c1cc(Cc2n[nH]c(=O)c3ccccc23)ccc1F)N1CCN(C(=O)C2CC2)CC1 [Olaparib] (partner 8 µM)
Procedure, shortened: as §1

CAP-232 + Crizotinib = compound: C[C@H]([C@@H](C(=O)N)NC(=O)[C@@H]1CSSC[C@@H](C(=O)N[C@H](C(=O)N[C@@H](C(=O)N[C@H](C(=O)N1)CCCCN)CC2=CNC3=CC=CC=C32)CC4=CC=C(C=C4)O)NC(=O)[C@@H](CC5=CC=CC=C5)N)O [CAP-232] + C[C@@H](Oc1cc(-c2cnn(C3CCNCC3)c2)cnc1N)c1c(Cl)ccc(F)c1Cl [Crizotinib] (partner 1 µM)
Procedure, shortened: as §1

CAP-232 + Navitoclax = compound: C[C@H]([C@@H](C(=O)N)NC(=O)[C@@H]1CSSC[C@@H](C(=O)N[C@H](C(=O)N[C@@H](C(=O)N[C@H](C(=O)N1)CCCCN)CC2=CNC3=CC=CC=C32)CC4=CC=C(C=C4)O)NC(=O)[C@@H](CC5=CC=CC=C5)N)O [CAP-232] + CC1(C)CCC(c2ccc(Cl)cc2)=C(CN2CCN(c3ccc(C(=O)NS(=O)(=O)c4ccc(N[C@H](CCN5CCOCC5)CSc5ccccc5)c(S(=O)(=O)C(F)(F)F)c4)cc3)CC2)C1 [Navitoclax] (partner 0.5 µM)
Procedure, shortened: as §1

CAP-232 + Alpelisib = compound: C[C@H]([C@@H](C(=O)N)NC(=O)[C@@H]1CSSC[C@@H](C(=O)N[C@H](C(=O)N[C@@H](C(=O)N[C@H](C(=O)N1)CCCCN)CC2=CNC3=CC=CC=C32)CC4=CC=C(C=C4)O)NC(=O)[C@@H](CC5=CC=CC=C5)N)O [CAP-232] + Cc1nc(NC(=O)N2CCC[C@H]2C(N)=O)sc1-c1ccnc(C(C)(C)C(F)(F)F)c1 [Alpelisib] (partner 2 µM)
Procedure, shortened: as §1

CAP-232 + Pictilisib = compound: C[C@H]([C@@H](C(=O)N)NC(=O)[C@@H]1CSSC[C@@H](C(=O)N[C@H](C(=O)N[C@@H](C(=O)N[C@H](C(=O)N1)CCCCN)CC2=CNC3=CC=CC=C32)CC4=CC=C(C=C4)O)NC(=O)[C@@H](CC5=CC=CC=C5)N)O [CAP-232] + CS(=O)(=O)N1CCN(Cc2cc3nc(-c4cccc5[nH]ncc45)nc(N4CCOCC4)c3s2)CC1 [Pictilisib] (partner 1 µM)
Procedure, shortened: as §1

CAP-232 + Lapatinib = compound: C[C@H]([C@@H](C(=O)N)NC(=O)[C@@H]1CSSC[C@@H](C(=O)N[C@H](C(=O)N[C@@H](C(=O)N[C@H](C(=O)N1)CCCCN)CC2=CNC3=CC=CC=C32)CC4=CC=C(C=C4)O)NC(=O)[C@@H](CC5=CC=CC=C5)N)O [CAP-232] + CS(=O)(=O)CCNCc1ccc(-c2ccc3ncnc(Nc4ccc(OCc5cccc(F)c5)c(Cl)c4)c3c2)o1 [Lapatinib] (partner 2 µM)
Procedure, shortened: as §1

CAP-232 + Linsitinib = compound: C[C@H]([C@@H](C(=O)N)NC(=O)[C@@H]1CSSC[C@@H](C(=O)N[C@H](C(=O)N[C@@H](C(=O)N[C@H](C(=O)N1)CCCCN)CC2=CNC3=CC=CC=C32)CC4=CC=C(C=C4)O)NC(=O)[C@@H](CC5=CC=CC=C5)N)O [CAP-232] + C[C@]1(O)C[C@@H](c2nc(-c3ccc4ccc(-c5ccccc5)nc4c3)c3c(N)nccn32)C1 [Linsitinib] (partner 1 µM)
Procedure, shortened: as §1

CAP-232 = compound: C[C@H]([C@@H](C(=O)N)NC(=O)[C@@H]1CSSC[C@@H](C(=O)N[C@H](C(=O)N[C@@H](C(=O)N[C@H](C(=O)N1)CCCCN)CC2=CNC3=CC=CC=C32)CC4=CC=C(C=C4)O)NC(=O)[C@@H](CC5=CC=CC=C5)N)O [CAP-232]
Procedure, shortened: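 A plate was accepted only when its control CV was below 25% and the cells had doubled at least once. Viability is defined from nuclear counts as treated wells divided by vehicle wells, with the median taken across plates. That median covers lung cancer cell lines grown in 1536-well plates, dosed by pinning at five √10-spaced library-drug concentrations, and counted in MetaXpress from 4× Hoechst images after 5 days.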

## Calu-6
CAP-232 + Bortezomib; first compound 0.4 µM
  relative viability: 1.16
CAP-232 + Bortezomib; first compound 1.265 µM
  relative viability: 1.04
CAP-232 + Bortezomib; first compound 4 µM
  relative viability: 0.947
CAP-232 + Bortezomib; first compound 12.65 µM
  relative viability: 0.653
CAP-232 + Foretinib; first compound 0.4 µM
  relative viability: 0.867
CAP-232 + Foretinib; first compound 1.265 µM
  relative viability: 1.02
CAP-232 + Foretinib; first compound 4 µM
  relative viability: 0.995
CAP-232 + Foretinib; first compound 12.65 µM
  relative viability: 0.561
CAP-232 + Olaparib; first compound 0.4 µM
  relative viability: 0.616
CAP-232 + Olaparib; first compound 1.265 µM
  relative viability: 0.542
CAP-232 + Olaparib; first compound 4 µM
  relative viability: 0.623
CAP-232 + Olaparib; first compound 12.65 µM
  relative viability: 0.394
CAP-232 + Crizotinib; first compound 0.4 µM
  relative viability: 0.961
CAP-232 + Crizotinib; first compound 1.265 µM
  relative viability: 0.842
CAP-232 + Crizotinib; first compound 4 µM
  relative viability: 0.988
CAP-232 + Crizotinib; first compound 12.65 µM
  relative viability: 0.555
CAP-232 + Navitoclax; first compound 0.4 µM
  relative viability: 0.963
CAP-232 + Navitoclax; first compound 1.265 µM
  relative viability: 0.941
CAP-232 + Navitoclax; first compound 4 µM
  relative viability: 0.831
CAP-232 + Navitoclax; first compound 12.65 µM
  relative viability: 0.446
CAP-232 + Alpelisib; first compound 0.4 µM
  relative viability: 1.09
CAP-232 + Alpelisib; first compound 1.265 µM
  relative viability: 1.08
CAP-232 + Alpelisib; first compound 4 µM
  relative viability: 1
CAP-232 + Alpelisib; first compound 12.65 µM
  relative viability: 0.654
CAP-232 + Pictilisib; first compound 0.4 µM
  relative viability: 0.956
CAP-232 + Pictilisib; first compound 1.265 µM
  relative viability: 0.889
CAP-232 + Pictilisib; first compound 4 µM
  relative viability: 0.945
CAP-232 + Pictilisib; first compound 12.65 µM
  relative viability: 0.585
CAP-232 + Lapatinib; first compound 0.4 µM
  relative viability: 1.26
CAP-232 + Lapatinib; first compound 1.265 µM
  relative viability: 1.03
CAP-232 + Lapatinib; first compound 4 µM
  relative viability: 1.15
CAP-232 + Lapatinib; first compound 12.65 µM
  relative viability: 0.664
CAP-232 + Linsitinib; first compound 0.4 µM
  relative viability: 1.05
CAP-232 + Linsitinib; first compound 1.265 µM
  relative viability: 1.01
CAP-232 + Linsitinib; first compound 4 µM
  relative viability: 0.929
CAP-232 + Linsitinib; first compound 12.65 µM
  relative viability: 0.988
CAP-232; 0.4 µM
  relative viability: 1.12
CAP-232; 1.265 µM
  relative viability: 1.02
CAP-232; 4 µM
  relative viability: 1.15
CAP-232; 12.65 µM
  relative viability: 0.74
